The values that follow come from PubChem BioAssay AID248 (DTP/NCI, 2004).

Values joined by “and” are separate entries in the source; they are usually repeats but may differ in a detail not shown here. Equal values may be shown once. Toxic doses and inconclusive results are not listed.

The experiment has as its system L1210 leukemia ip in BDF1 mice, survival T/C. Kind of experiment: NCI In Vivo Anticancer Drug Screen. Data for tumor model L1210 Leukemia (intraperitoneal) in B6D2F1 (BDF1) mice. The conditions noted are these: endpoint: mean survival time, higher = longer survival. The essentials:
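Read-out is survival time, reported as the treated-group measurement over the vehicle-control measurement.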

Setting [1] is: dose: 100.0 mg/kg/injection, schedule: Q01DX009 (ip), vehicle: saline sonified.
Where [2] appears, read: dose: 100.0 mg/kg/injection, schedule: Q04DX003 (ip), vehicle: saline.
Setting [3] is: dose: 200.0 mg/kg/injection, schedule: Q01DX009 (ip), vehicle: saline sonified.
[4] abbreviates: dose: 200.0 mg/kg/injection, schedule: Q01DX009 (ip), vehicle: Klucel (hydroxypropylcellulose) (HPC).
Where [5] appears, read: dose: 400.0 mg/kg/injection, schedule: Q01DX009 (ip), vehicle: Klucel (hydroxypropylcellulose) (HPC).
The mark [6] stands for this setting: dose: 100.0 mg/kg/injection, schedule: Q04DX003 (ip), vehicle: Klucel (hydroxypropylcellulose) (HPC).
Where [7] appears, read: dose: 200.0 mg/kg/injection, schedule: Q04DX003 (ip), vehicle: Klucel (hydroxypropylcellulose) (HPC).
Setting [8] is: dose: 400.0 mg/kg/injection, schedule: Q04DX003 (ip), vehicle: Klucel (hydroxypropylcellulose) (HPC).
Setting [9] is: dose: 50.0 mg/kg/injection, schedule: Q01DX009 (ip), vehicle: saline with Tween-80.
The mark [10] stands for this setting: dose: 100.0 mg/kg/injection, schedule: Q01DX009 (ip), vehicle: saline with Tween-80.
The mark [11] stands for this setting: dose: 200.0 mg/kg/injection, schedule: Q01DX009 (ip), vehicle: saline with Tween-80.
The mark [12] stands for this setting: dose: 100.0 mg/kg/injection, schedule: Q01DX001 (ip), vehicle: saline.
Where [13] appears, read: dose: 200.0 mg/kg/injection, schedule: Q01DX001 (ip), vehicle: saline.
Setting [14] is: dose: 400.0 mg/kg/injection, schedule: Q01DX001 (ip), vehicle: saline.

For the compound `CC(C)N1CCOC1c1ccccc1` (stereo unspecified), the T/C was 105 % of control (dose: 50.0 mg/kg/injection, schedule: Q01DX009 (ip), vehicle: saline sonified); 105 % of control under setting [1]; 100 % of control under setting [2]; 100 % of control under setting [3]; 96 % of control (dose: 200.0 mg/kg/injection, schedule: Q04DX003 (ip), vehicle: saline).
With `CCCCCCCCCCCCCCCCCC(=O)N/N=C/c1ccc(Cl)cc1`, the T/C is 101 % of control and 88 % of control (dose: 100.0 mg/kg/injection, schedule: Q01DX009 (ip), vehicle: Klucel (hydroxypropylcellulose) (HPC)); 102 % of control under setting [4]; 98 % of control and 92 % of control under setting [5].
Turning to `O=[N+]([O-])c1ccc(C2SCSCS2)cc1`, the T/C was 98 % of control under setting [6]; 90 % of control under setting [4]; 93 % of control under setting [7]; 95 % of control under setting [5]; 93 % of control under setting [8].
On to `O=C(COc1ccc(Cl)cc1)Nc1cc(Cl)ccc1Cl`, for which the T/C by setting is: (dose: 100.0 mg/kg/injection, schedule: Q01DX001 (ip), vehicle: Klucel (hydroxypropylcellulose) (HPC)) 113 % of control; under setting [6], 88 % of control; (dose: 200.0 mg/kg/injection, schedule: Q01DX001 (ip), vehicle: Klucel (hydroxypropylcellulose) (HPC)) 95 % of control; under setting [7], 88 % of control; (dose: 400.0 mg/kg/injection, schedule: Q01DX001 (ip), vehicle: Klucel (hydroxypropylcellulose) (HPC)) 97 % of control; under setting [8], 90 % of control.
Turning to `COc1cc(Cl)ccc1C`, the T/C is 98 % of control under setting [9]; 93 % of control under setting [10]; 93 % of control (dose: 100.0 mg/kg/injection, schedule: Q04DX003 (ip), vehicle: saline with Tween-80); 90 % of control under setting [11]; 89 % of control (dose: 200.0 mg/kg/injection, schedule: Q04DX003 (ip), vehicle: saline with Tween-80).
With `O=c1c(N=Nc2ccc(Cl)cc2)c(O)n(-c2ccccc2)c(=S)n1-c1ccccc1`, the T/C reads like this: (dose: 37.5 mg/kg/injection, schedule: Q01DX001 (ip), vehicle: other) 94 % of control; (dose: 75.0 mg/kg/injection, schedule: Q01DX001 (ip), vehicle: other) 107 % of control; (dose: 150.0 mg/kg/injection, schedule: Q01DX001 (ip), vehicle: other) 96 % of control.
With `O=C(c1ccccc1)C1C(=O)N(c2ccccc2)C(=O)N1c1ccccc1` (stereo unspecified), the T/C by setting is: under setting [12], 90 % of control; under setting [13], 96 % of control; under setting [14], 96 % of control.
In the case of `O=C(O)c1ccc(Br)cc1.[Ni]`, the T/C by setting is: (dose: 25.0 mg/kg/injection, schedule: Q04DX002 (ip), vehicle: gum acacia) 100 % of control; (dose: 50.0 mg/kg/injection, schedule: Q04DX002 (ip), vehicle: gum acacia) 101 % of control.
On to `Cc1cccc(C2NC(=O)N3C(c4cccc(C)c4)NC(=O)N23)c1` (stereo unspecified), for which the T/C by setting is: (dose: 100.0 mg/kg/injection, schedule: Q01DX009 (ip), vehicle: gum acacia) 89 % of control; (dose: 100.0 mg/kg/injection, schedule: Q04DX003 (ip), vehicle: gum acacia) 88 % of control; (dose: 200.0 mg/kg/injection, schedule: Q01DX009 (ip), vehicle: gum acacia) 88 % of control; (dose: 200.0 mg/kg/injection, schedule: Q04DX003 (ip), vehicle: gum acacia) 93 % of control; (dose: 400.0 mg/kg/injection, schedule: Q04DX003 (ip), vehicle: gum acacia) 90 % of control.
`CN(C)C(=O)c1ccc[n+](CC(=O)Nc2ccc(Cl)cc2)c1`: under setting [2], the T/C is 98 % of control.
Regarding `NC(=O)c1ccccc1OC(=O)Nc1ccccc1F`, the T/C was 106 % of control under setting [10]; 107 % of control under setting [11]; 107 % of control (dose: 400.0 mg/kg/injection, schedule: Q01DX009 (ip), vehicle: saline with Tween-80).
As to `O=C(CCl)NP(=O)(O)O`, the T/C (dose: 25.0 mg/kg/injection, schedule: Q04DX002 (ip), vehicle: saline) is 97 % of control; the T/C (dose: 50.0 mg/kg/injection, schedule: Q04DX002 (ip), vehicle: saline) was 102 % of control; the T/C (dose: 100.0 mg/kg/injection, schedule: Q04DX002 (ip), vehicle: saline) was 102 % of control.
In the case of `CCCCC#CCCl`, the T/C under setting [12] was 102 % of control; the T/C (dose: 100.0 mg/kg/injection, schedule: Q01DX009 (ip), vehicle: saline) is 94 % of control; the T/C under setting [13] is 103 % of control; the T/C under setting [14] was 111 % of control.
On to `O=C(O)C1CCCC2C(O)CCC(=O)C12` (stereo unspecified), for which the T/C is 95 % of control and 107 % of control under setting [12]; 98 % of control under setting [1]; 100 % of control (dose: 100.0 mg/kg/injection, schedule: Q04DX003 (ip), vehicle: saline sonified); 104 % of control and 101 % of control under setting [13]; 102 % of control under setting [3]; 92 % of control (dose: 200.0 mg/kg/injection, schedule: Q04DX003 (ip), vehicle: saline sonified). In addition, the T/C under setting [14] is 107 % of control and 96 % of control; the T/C (dose: 400.0 mg/kg/injection, schedule: Q01DX009 (ip), vehicle: saline sonified) was 93 % of control; the T/C (dose: 400.0 mg/kg/injection, schedule: Q04DX003 (ip), vehicle: saline sonified) is 95 % of control.
For `COc1cc(C=O)ccc1OC(=O)Nc1cc(C)ccc1C`, the T/C is, setting by setting: (dose: 25.0 mg/kg/injection, schedule: Q01DX009 (ip), vehicle: saline with Tween-80) 100 % of control and 91 % of control; (dose: 50.0 mg/kg/injection, schedule: Q01DX001 (ip), vehicle: saline with Tween-80) 96 % of control; under setting [9], 97 % of control and 101 % of control; (dose: 100.0 mg/kg/injection, schedule: Q01DX001 (ip), vehicle: saline with Tween-80) 97 % of control; (dose: 100.0 mg/kg/injection, schedule: Q04DX002 (ip), vehicle: saline with Tween-80) 91 % of control and 92 % of control; (dose: 200.0 mg/kg/injection, schedule: Q01DX001 (ip), vehicle: saline with Tween-80) 94 % of control and 92 % of control. Also, the T/C by setting is: (dose: 200.0 mg/kg/injection, schedule: Q04DX002 (ip), vehicle: saline with Tween-80) 94 % of control and 106 % of control; (dose: 400.0 mg/kg/injection, schedule: Q04DX002 (ip), vehicle: saline with Tween-80) 94 % of control and 92 % of control.
In the case of `Cc1ccc(C(=O)n2c(Cl)c(C=O)c3ccccc32)cc1`, the T/C is, setting by setting: (dose: 50.0 mg/kg/injection, schedule: Q04DX002 (ip), vehicle: Klucel (hydroxypropylcellulose) (HPC)) 94 % of control; (dose: 100.0 mg/kg/injection, schedule: Q04DX002 (ip), vehicle: Klucel (hydroxypropylcellulose) (HPC)) 97 % of control; (dose: 200.0 mg/kg/injection, schedule: Q04DX002 (ip), vehicle: Klucel (hydroxypropylcellulose) (HPC)) 94 % of control.
Regarding `Nc1nc(SSc2nc(N)nc3c2ncn3C2CC(O)C(CO)O2)c2ncn(C3CC(O)C(CO)O3)c2n1` (stereo unspecified), the T/C was 212 % of control (dose: 1.0 mg/kg/injection, schedule: Q01DX009 (ip), vehicle: saline); 223 % of control (dose: 2.0 mg/kg/injection, schedule: Q01DX009 (ip), vehicle: saline); 100 % of control (dose: 75.0 mg/kg/injection, schedule: Q01DX001 (ip), vehicle: saline); 118 % of control (dose: 119.0 mg/kg/injection, schedule: Q01DX009 (ip), vehicle: saline); 116 % of control (dose: 178.0 mg/kg/injection, schedule: Q01DX009 (ip), vehicle: saline); 168 % of control (dose: 267.0 mg/kg/injection, schedule: Q01DX001 (ip), vehicle: saline). Further, the T/C is 88 % of control (dose: 267.0 mg/kg/injection, schedule: Q01DX009 (ip), vehicle: saline); 157 % of control and 178 % of control under setting [14]; 201 % of control (dose: 600.0 mg/kg/injection, schedule: Q01DX001 (ip), vehicle: saline); 96 % of control (dose: 31.3 micrograms/kg/injection, schedule: Q01DX009 (ip), vehicle: saline); 109 % of control (dose: 62.5 micrograms/kg/injection, schedule: Q01DX009 (ip), vehicle: saline); 112 % of control (dose: 125.0 micrograms/kg/injection, schedule: Q01DX009 (ip), vehicle: saline). Moreover, the T/C (dose: 250.0 micrograms/kg/injection, schedule: Q01DX009 (ip), vehicle: saline) is 109 % of control.
